Laboratory results: patent publication US7091202B2, “4-arylspirocycloalkyl-2-aminopyrimidine carboxamide KCNQ potassium channel modulators” (Bristol-Myers Squibb Company, priority 2004, dated 2006)

These molecules were tested against T1, hQ23 (HEK-293 cell line stably transfected with one of the members of the KCNQ family) (Homo sapiens, UniProt O43525+O43526) (assay: Thallium flux assay for KCNQ channel blockers (FLIPR, BTC dye)). Settings: Table 2; thallium flux, HEK-293.
T1 construct: expressed in transfected cells; host or cells: HEK-293, stably transfected
T1 sequence (O43526 whole entry): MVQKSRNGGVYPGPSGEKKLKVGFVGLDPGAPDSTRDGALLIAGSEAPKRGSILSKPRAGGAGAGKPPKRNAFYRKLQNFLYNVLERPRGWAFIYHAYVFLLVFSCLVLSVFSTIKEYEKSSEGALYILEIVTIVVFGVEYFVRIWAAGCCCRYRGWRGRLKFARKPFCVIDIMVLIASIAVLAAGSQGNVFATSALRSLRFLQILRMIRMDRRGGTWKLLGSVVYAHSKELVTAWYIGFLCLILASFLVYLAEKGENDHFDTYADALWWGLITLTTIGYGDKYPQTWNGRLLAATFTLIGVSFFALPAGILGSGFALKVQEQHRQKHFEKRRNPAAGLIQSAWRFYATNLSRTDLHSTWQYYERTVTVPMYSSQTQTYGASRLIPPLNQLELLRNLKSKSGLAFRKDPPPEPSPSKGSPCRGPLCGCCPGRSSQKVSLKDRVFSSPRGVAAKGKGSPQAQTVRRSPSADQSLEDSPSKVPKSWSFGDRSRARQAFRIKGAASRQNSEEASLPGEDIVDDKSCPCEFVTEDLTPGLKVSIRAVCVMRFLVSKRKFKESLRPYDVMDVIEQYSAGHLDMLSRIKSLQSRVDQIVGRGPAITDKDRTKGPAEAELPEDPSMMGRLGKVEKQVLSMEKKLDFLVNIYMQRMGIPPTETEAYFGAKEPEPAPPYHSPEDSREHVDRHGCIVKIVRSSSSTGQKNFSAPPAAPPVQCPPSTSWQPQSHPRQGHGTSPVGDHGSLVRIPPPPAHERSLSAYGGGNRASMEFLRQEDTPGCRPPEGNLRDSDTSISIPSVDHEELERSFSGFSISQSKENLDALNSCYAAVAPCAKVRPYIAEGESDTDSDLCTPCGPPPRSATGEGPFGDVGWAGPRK
T1 sequence (O43525 whole entry): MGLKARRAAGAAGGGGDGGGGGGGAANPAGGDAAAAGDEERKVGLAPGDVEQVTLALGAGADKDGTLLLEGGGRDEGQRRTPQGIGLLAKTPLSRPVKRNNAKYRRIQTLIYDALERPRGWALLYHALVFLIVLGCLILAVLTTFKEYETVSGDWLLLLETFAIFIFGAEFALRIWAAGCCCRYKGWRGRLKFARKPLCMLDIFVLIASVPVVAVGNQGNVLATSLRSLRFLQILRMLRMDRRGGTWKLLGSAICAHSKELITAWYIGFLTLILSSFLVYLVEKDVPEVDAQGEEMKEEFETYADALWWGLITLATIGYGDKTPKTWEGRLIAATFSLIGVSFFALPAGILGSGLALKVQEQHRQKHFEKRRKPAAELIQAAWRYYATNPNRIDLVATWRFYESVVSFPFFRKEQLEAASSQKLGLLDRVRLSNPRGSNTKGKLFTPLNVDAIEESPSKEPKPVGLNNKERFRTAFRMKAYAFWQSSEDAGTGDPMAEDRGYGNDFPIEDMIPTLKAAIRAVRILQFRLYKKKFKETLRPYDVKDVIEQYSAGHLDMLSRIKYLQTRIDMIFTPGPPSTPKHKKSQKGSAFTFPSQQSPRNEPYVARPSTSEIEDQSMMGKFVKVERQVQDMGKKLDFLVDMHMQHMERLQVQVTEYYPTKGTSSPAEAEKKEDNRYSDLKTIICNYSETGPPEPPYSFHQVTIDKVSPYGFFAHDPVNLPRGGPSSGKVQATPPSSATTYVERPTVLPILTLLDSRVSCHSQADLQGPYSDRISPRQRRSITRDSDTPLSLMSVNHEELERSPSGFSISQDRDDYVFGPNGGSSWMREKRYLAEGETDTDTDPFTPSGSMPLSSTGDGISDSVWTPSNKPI
Assay type: cell-based
Procedure: Thallium Flux Assay for KCNQ channel blockers. Approximately 20,000 cells/well of an HEK-293 cell line stably transfected with one of the members of the KCNQ family were plated into clear-bottom, black-walled, poly-D-lysine coated, 384 well assay plates in 20 μl/well of low chloride plating medium. Low chloride plating medium was composed of the following: sodium gluconate, 109 mM; potassium gluconate, 5.4 mM; hemi-calcium gluconate, 3.6 mM; magnesium sulfate, 0.8 mM; sodium bicarbonate, 26.2 mM; sodium phosphate monobasic, 1.2 mM; glutamine, 2 mM; glucose, 5 mM; HEPES (pH 7.3) 10 mM, 10× concentration of vitamins (Gibco/LifeTechnologies catalog #11120-052) and 1× concentration of amino acids (Gibco/LifeTechnologies catalog #11130-051).
Following overnight incubation in a 5% CO2 incubator at 37° C., the cells in the plates were loaded with 20 μl/well of a dye loading solution containing the acetomethoxy ester of the thallium-sensitive fluorescent dye BTC, BTC-AM (2 μM) and pluronic acid (0.02% w/v) in chloride free assay buffer. Chloride free assay buffer was composed of the following: sodium gluconate, 140 mM; potassium gluconate, 2.5 mM; hemi-calcium gluconate, 6 mM; hemi-magnesium gluconate, 2 mM; glucose, 5 mM; HEPES (pH 7.3), 10 mM.
Following incubation in the dye loading solution for from 45–90 min at room temperature, the dye loading solution was removed by aspiration and replaced with 40 μl/well of chloride free assay buffer.
Prior to addition to cell plates, test compound and standard compounds were dissolved in DMSO to 3 mM concentration. Compounds were then diluted from the 3 mM stock to 100-fold over the final assay concentration in DMSO. Finally, compounds in DMSO were diluted from 100-fold over the final assay concentration to 5-fold over the final assay concentration in chloride free assay buffer.
Ten μl/well of compounds at 5-fold over the final assay concentration were then added to the cell plates. This represents a 1:5 dilution, yielding the final test concentration. The wells used for test compounds were A1–P20. Wells A21–P22 contained a standard ‘blocker’ and a fully efficacious concentration (positive control). Wells A23–P24 contained chloride free assay buffer containing 1% DMSO (negative control).
Following addition of test compounds, the plates were loaded onto the Molecular Devices FLIPR. The 488 nm line of the argon laser was used to excite the BTC and the emission filter was a 540(+/−30) nm. Images were collected at 1 Hz. Ten seconds of baseline were collected and then the FLIPR was used to add 13 μl/well of a stimulus buffer composed of Tl2SO4, 25 mM; sodium gluconate, 30 mM; potassium sulfate, 50 mM; hemi-calcium gluconate, 6 mM; hemi-magnesium gluconate, 2 mM; glucose, 5 mM; HEPES (pH 7.3), 10 mM in chloride free assay buffer. Images were collected for an additional 60 seconds.
For data analysis, the amplitude of the average of the negative controls was subtracted from all wells. The amplitudes of the test compounds were then compared to the value of four standard deviations of the negative control wells. The lowest concentration of a test compound sufficient to generate a signal amplitude greater than or equal to four standard deviations from the amplitude of the negative controls was defined as the minimal active concentration.
For generating IC50 values, compounds were serially diluted in 1:3 volume increments to produce a 10 point concentration series. IC50 values were calculated by fitting the resulting amplitudes to a single-site logistic equation. IC50 was defined as the concentration of test compound required to yield 50% of the response of the positive control.

Row | SMILES | EC50
1 | CC1CCCN(c2ncc(C(=O)NC(C)c3ccc(F)cc3)c(C3(c4ccccc4)CC3)n2)C1 (stereo not shown) [Example 50, 5-pyrimidinecarboxamide, N-[1-(4-fluorophenyl)ethyl]-2-(3-methyl-1-piperidinyl)-4-(1-phenylcyclopropyl)-] | 0.673 µM

Same assay, conditions: Table 3; thallium flux, HEK-293

Row | SMILES | EC50
2 | CC1CCN(c2ncc(C(=O)NCc3ccc(Cl)cc3Cl)c(C3(c4ccc(Cl)cc4)CCC3)n2)CC1 [Example 64, 5-pyrimidinecarboxamide, 4-[1-(4-chlorophenyl)cyclobutyl]-N-[(2,4-dichlorophenyl)methyl]-2-(4-methyl-1-piperidinyl)-] | 0.034 µM
3 | CC1CCCN(c2ncc(C(=O)NC(C)c3ccc(F)cc3)c(C3(c4ccc(Cl)cc4)CCC3)n2)C1 (stereo not shown) [Example 68, 5-pyrimidinecarboxamide, 4-[1-(4-chlorophenyl)cyclobutyl]-N-[1-(4-fluorophenyl)ethyl]-2-(3-methyl-1-piperidinyl)-] | 0.128 µM

Same assay, conditions: hQ23 cells, thallium flux

Row | SMILES | EC50
4 | CC(NC(=O)c1cnc(NCCN(C)C)nc1C1(c2ccc(Cl)cc2)CCCC1)c1cccc2ccccc12 (stereo not shown) [Example 163, 5-pyrimidinecarboxamide, 4-[1-(4-chlorophenyl)cyclopentyl]-2-[[2-(dimethylamino)ethyl]amino]-N-[1-(1-naphthalenyl)ethyl]-] | 0.705 µM
5 | CC(NC(=O)c1cnc(NC2CCCC2)nc1C1(c2ccccc2)CCCC1)c1ccc(F)cc1 (stereo not shown) [Example 136, 5-pyrimidinecarboxamide, 2-(cyclopentylamino)-N-[1-(4-fluorophenyl)ethyl]-4-(1-phenylcyclopentyl)-] | 0.413 µM
6 | CC1CCN(c2ncc(C(=O)NCc3ccc(Cl)cc3Cl)c(C3(c4ccccc4)CCCC3)n2)CC1 [Example 113, 5-pyrimidinecarboxamide, N-[(2,4-dichlorophenyl)methyl]-2-(4-methyl-1-piperidinyl)-4-(1-phenylcyclopentyl)-] | 0.01 µM
7 | CN1CCC(N(C)c2ncc(C(=O)NCc3cc(F)cc(C(F)(F)F)c3)c(C3(c4ccc(Cl)cc4)CCCC3)n2)CC1 [Example 194, 5-pyrimidinecarboxamide, 4-[1-(4-chlorophenyl)cyclopentyl]-N-[[3-fluoro-5-(trifluoromethyl)phenyl]methyl]-2-[methyl(1-methyl-4-piperidinyl)amino]-] | 0.13 µM
8 | CC(NC(=O)c1cnc(NC2CCCC2)nc1C1(c2ccccc2)CCCC1)c1cccc2ccccc12 (stereo not shown) [Example 100, 5-pyrimidinecarboxamide, 2-(cyclopentylamino)-N-[1-(1-naphthalenyl)ethyl]-4-(1-phenylcyclopentyl)-] | 0.16 µM
9 | CCN(Cc1ccccc1)C(=O)c1cnc(N2CCC(C)CC2)nc1C1(c2ccccc2)CCCC1 [Example 86, 5-pyrimidinecarboxamide, N-ethyl-2-(4-methyl-1-piperidinyl)-4-(1-phenylcyclopentyl)-N-(phenylmethyl)-] | 0.334 µM
10 | O=C(NCc1ccc(F)cc1F)c1cnc(N2CCCC2)nc1C1(c2ccccc2)CCCC1 [Example 117, 5-pyrimidinecarboxamide, N-[(2,4-difluorophenyl)methyl]-4-(1-phenylcyclopentyl)-2-(1-pyrrolidinyl)-] | 0.127 µM

Same assay, conditions: hQ23 cells, thallium flux assay

Row | SMILES | EC50
11 | CC1CCCN(c2ncc(C(=O)NC(C)c3cccc4ccccc34)c(C3(c4ccc(F)cc4)CCCC3)n2)C1 (stereo not shown) [Example 244, 5-pyrimidinecarboxamide, 4-[1-(4-fluorophenyl)cyclopentyl]-2-(3-methyl-1-piperidinyl)-N-[1-(1-naphthalenyl)ethyl]-] | 0.01 µM
12 | CCC(C)Nc1ncc(C(=O)NC(C)c2cccc3ccccc23)c(C2(c3ccc(F)cc3)CCCC2)n1 (stereo not shown) [Example 246, 5-pyrimidinecarboxamide, 4-[1-(4-fluorophenyl)cyclopentyl]-2-[(1-methylpropyl)amino]-N-[1-(1-naphthalenyl)ethyl]-] | 0.177 µM
13 | CC1CCCN(c2ncc(C(=O)NCc3ccc(Cl)cc3Cl)c(C3(c4ccc(F)cc4)CCCC3)n2)C1 (stereo not shown) [Example 262, 5-pyrimidinecarboxamide, N-[(2,4-dichlorophenyl)methyl]-4-[1-(4-fluorophenyl)cyclopentyl]-2-(3-methyl-1-piperidinyl)-] | 0.01 µM
